Source: patent publication US20240132525A1, “BORON […], CO[…], METHODS AND USES THEREOF” (priority 2022, published 2024)
Where two headings read alike, the source gives them in different places. Values belong to the molecule of their own block, whether it stands above or below them.

Columns and labels:
JAK2 = JAK2 (Homo sapiens (Human), UniProt O60674); experiment: Biochemical kinase assay (33P-ATP filter-binding), JAK2
Text: (§1) Biochemical Kinase Assay Protocol (JAK)
(§2) Reaction Procedure: • 1. […] Detected kinase activity by filter-binding method.

JAK1 = JAK1 (Homo sapiens (Human), UniProt P23458); experiment: Biochemical kinase assay (33P-ATP filter-binding), JAK1
JAK1, sequence (P23458 whole entry, species assumed): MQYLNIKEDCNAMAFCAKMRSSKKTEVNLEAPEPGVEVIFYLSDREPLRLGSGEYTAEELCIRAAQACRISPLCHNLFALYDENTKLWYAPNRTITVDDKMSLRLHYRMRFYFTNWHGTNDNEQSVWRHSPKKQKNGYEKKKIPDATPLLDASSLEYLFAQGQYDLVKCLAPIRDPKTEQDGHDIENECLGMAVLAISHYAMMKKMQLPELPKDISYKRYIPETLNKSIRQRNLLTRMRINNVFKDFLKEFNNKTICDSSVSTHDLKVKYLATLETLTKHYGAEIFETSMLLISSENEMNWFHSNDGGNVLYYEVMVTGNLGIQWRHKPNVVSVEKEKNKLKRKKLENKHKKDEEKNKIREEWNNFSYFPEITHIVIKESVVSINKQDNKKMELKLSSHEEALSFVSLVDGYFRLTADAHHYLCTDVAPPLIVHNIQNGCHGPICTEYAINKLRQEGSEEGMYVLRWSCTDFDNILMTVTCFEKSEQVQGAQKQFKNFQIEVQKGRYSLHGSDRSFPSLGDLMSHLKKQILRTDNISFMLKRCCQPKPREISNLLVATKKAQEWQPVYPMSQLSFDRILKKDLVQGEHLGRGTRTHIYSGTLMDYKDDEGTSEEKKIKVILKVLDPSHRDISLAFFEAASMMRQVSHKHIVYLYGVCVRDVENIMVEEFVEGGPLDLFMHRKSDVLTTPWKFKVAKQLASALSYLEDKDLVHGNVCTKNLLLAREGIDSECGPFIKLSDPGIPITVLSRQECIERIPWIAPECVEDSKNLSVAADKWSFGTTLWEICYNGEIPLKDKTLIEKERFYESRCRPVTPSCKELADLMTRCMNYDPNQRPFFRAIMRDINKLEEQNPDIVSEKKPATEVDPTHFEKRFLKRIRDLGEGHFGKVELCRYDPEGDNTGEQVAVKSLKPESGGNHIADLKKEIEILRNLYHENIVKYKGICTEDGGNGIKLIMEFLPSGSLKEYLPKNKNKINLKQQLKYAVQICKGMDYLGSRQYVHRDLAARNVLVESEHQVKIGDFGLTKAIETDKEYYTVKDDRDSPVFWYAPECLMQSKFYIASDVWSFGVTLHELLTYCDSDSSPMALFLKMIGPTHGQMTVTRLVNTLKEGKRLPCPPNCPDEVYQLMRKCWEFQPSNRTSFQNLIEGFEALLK
Text: as §1, §2

PDE4B = PDE4B (Homo sapiens (Human), UniProt Q07343); experiment: PDE4B inhibition; assay type: biochemical; conditions: Table 3a
PDE4B, sequence (Q07343 whole entry, species assumed): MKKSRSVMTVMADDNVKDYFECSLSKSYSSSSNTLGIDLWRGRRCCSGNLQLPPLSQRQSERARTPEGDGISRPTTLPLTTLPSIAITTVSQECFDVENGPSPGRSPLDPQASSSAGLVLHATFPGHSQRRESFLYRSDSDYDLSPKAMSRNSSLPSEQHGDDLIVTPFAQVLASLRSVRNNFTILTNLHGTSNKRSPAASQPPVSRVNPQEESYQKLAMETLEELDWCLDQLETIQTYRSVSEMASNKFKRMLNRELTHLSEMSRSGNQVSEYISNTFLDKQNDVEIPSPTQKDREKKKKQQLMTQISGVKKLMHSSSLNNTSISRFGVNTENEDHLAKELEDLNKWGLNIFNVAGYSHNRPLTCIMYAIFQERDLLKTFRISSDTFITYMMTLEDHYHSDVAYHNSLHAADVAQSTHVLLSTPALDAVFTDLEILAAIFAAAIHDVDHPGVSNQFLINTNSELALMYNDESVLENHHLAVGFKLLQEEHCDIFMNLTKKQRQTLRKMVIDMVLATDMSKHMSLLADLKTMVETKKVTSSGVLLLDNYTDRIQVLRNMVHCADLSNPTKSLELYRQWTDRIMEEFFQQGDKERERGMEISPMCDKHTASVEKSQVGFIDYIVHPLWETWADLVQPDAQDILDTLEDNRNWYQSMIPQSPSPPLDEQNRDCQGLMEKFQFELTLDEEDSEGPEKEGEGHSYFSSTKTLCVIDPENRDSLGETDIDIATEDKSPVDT

GM-CSF/pSTAT5 = experiment: Cytokine function assay GM-CSF/pSTAT5 in lysed whole blood cells; assay type: cell-based; conditions: Whole blood cell, read-out: IC50 GM-CSF
Method: (§3) Cytokine Function Assay Protocols for IL-4/pSTAT6 and GM-CSF/pSTAT5
GM-CSF/pSTAT5: • Whole blood from a healthy donor was lysed to remove red blood cells. Cells were plated onto a 96 well plate. Compound was added and incubated for 1 hour (at 37° C.). After 1 hour, cells were stimulated with GM-CSF for 15 minutes. Cells were fixed and stained with anti-pSTAT5 antibody. After staining, cells were read on a Beckman-Coulter CytoFLEX.

IL-31 = experiment: Cytokine function assay for IL-31 in DH82 cells; assay type: cell-based, canine; conditions: Canis lupus familiaris
Method: Cytokine Function Assay Protocol for IL-31
The protocol for the cytokine function assay for IL-31 is set forth below: • 1. […] After 24 hr, wash with 37° C. pre-warmed PBS (100 uL/well). • 3. Add serum-free MEM, 90 uL per well, 2 hr, 37° C. • 4. Add 10 uL 10×IL-31 (40, 10, 2.5 ug/mL) in duplicate, 5 min, 37° C. • 5. Remove medium, add 60 uL lysis buffer per well. Agitate on a plate shaker (˜350 rpm) for 10 min at RT. • 6. […] Add 6 uL Acceptor Mix, cover with aluminum foil, quickly spin at 1000 rpm, shake at 120 rpm for 2 min, then incubate at RT for 1 hr. • 8. Add 6 uL Donor Mix, cover with aluminum foil, quickly spin at 1000 rpm, shake at 120 rpm for 2 min, then incubate at RT for 1 hr. • 9. Measure the fluorescence using EnVision™ plate reader.

IL-4/pSTAT6 = experiment: Cytokine function assay IL-4/pSTAT6 in PBMC; assay type: cell-based; conditions: PBMC, read-out: IC50 IL-4, Table 3a
Method: as §3
IL-4/pSTAT6: • PBMC from a healthy donor was plated onto a 96 w plate. Compound was added and incubated for 1 hour (at 37° C.). After 1 hour, cells were stimulated with IL-4 for 15 minutes. Cells were fixed and stained with anti-pSTAT6 antibody. After staining, cells were read on a Beckman-Coulter CytoFLEX.

[1] = Dog LM (liver microsome) assay; assay type: in vitro ADME; conditions: Table 3a; predicted clearance as percent of liver blood flow, 1 μM, 1 mg/ml microsomal protein
Method in brief: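 Pooled Beagle liver microsomes (1 mg/ml protein), compound 1 μM, Tris pH 7.6 with 5 mM MgCl2, 37 °C, started with 1 mM NADPH; parent loss by LC-MS/MS over several time points.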

[2] = Pharmacokinetic profile after single oral administration in Beagle dogs; assay type: in vivo; conditions: male Beagle dogs, single oral dose about 1.0 mg/kg, fasted
Method: Summary of Pharmacokinetic (PK) profile
Three healthy male Beagle dogs were studied to determine a representative pharmacokinetic (PK) profile following a single oral administration of 1.0 mg/kg to each dog in a fasted state. Blood samples were collected at pre-dose, 0.25, 0.5, 1, 2, 4, 8, 24; 32, and 48 h post dose following oral administration (1 mg/mL in 10% Propylene glycol (PG), 45% PEG400, 7% Cremophor EL, 38% 50 mM citrate buffer pH 3.0 suspension or clear solution).

[3] = DH82, Table 3a, read-out: IC50 IL-31

JAK2, sequence (O60674 whole entry, species assumed): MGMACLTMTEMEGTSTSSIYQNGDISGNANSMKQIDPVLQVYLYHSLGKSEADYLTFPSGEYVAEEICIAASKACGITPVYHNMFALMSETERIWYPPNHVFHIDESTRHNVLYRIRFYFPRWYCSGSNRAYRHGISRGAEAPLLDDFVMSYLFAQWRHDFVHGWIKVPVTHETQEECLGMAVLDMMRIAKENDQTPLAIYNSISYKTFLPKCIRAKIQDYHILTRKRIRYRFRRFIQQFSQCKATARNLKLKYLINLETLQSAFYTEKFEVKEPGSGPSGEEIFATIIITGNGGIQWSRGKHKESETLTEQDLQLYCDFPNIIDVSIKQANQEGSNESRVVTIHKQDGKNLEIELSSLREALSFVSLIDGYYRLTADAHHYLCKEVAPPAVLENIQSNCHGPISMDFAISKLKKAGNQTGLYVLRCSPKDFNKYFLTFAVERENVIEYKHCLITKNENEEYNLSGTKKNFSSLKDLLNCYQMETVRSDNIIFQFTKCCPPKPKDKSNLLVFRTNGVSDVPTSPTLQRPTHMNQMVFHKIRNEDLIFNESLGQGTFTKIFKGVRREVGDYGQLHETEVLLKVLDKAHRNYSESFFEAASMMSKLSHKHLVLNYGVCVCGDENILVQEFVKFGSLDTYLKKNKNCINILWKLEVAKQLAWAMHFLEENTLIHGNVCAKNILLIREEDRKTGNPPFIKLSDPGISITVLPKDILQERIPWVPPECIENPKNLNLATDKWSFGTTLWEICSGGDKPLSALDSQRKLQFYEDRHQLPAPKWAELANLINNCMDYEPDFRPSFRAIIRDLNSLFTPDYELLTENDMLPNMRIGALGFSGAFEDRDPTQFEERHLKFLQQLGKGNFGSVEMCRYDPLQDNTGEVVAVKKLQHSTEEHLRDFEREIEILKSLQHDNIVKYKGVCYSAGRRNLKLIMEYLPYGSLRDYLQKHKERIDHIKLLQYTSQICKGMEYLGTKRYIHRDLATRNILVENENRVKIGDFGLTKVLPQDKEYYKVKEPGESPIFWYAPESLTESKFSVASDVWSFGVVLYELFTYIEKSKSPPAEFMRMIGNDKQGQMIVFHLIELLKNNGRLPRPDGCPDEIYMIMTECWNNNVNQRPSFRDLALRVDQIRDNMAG

Structure (SMILES): Cc1cnc(Nc2cc(F)c3c(c2)COB3O)nc1NC1COCCC1C#N (racemic) [Example 029, (trans)-3-((2-((7-fluoro-1-hydroxy-1,3-dihydrobenzo[c][1,2]oxaborol-5-yl)amino)-5-methylpyrimidin-4-yl)amino)tetrahydro-2H-pyran-4-carbonitrile]
- IC50 (JAK2; Table 3a, read-out: IC50 JAK2): 9.8 nM
- IC50 (JAK1; Table 3a, read-out: IC50 JAK1): 0.2 nM
- IC50 (PDE4B): 978 nM
- IC50 (GM-CSF/pSTAT5): 2240 nM
- IC50 (IL-31; [3]): 49.5 nM
- IC50 (IL-4/pSTAT6): 58.3 nM
- Dog LM QH [1]: <19.9%

Structure (SMILES): Cc1cnc(Nc2cc(C)c3c(c2)COB3O)nc1N[C@@H]1CCC[C@H]1C#N (relative stereo) [Example 002, (trans)-2-((2-((1-hydroxy-7-methyl-1,3-dihydrobenzo[c][1,2]oxaborol-5-yl)amino)-5-methylpyrimidin-4-yl)amino)cyclopentane-1-carbonitrile]
- IC50 (JAK2; Table 3a, read-out: IC50 JAK2): 12.1 nM
- IC50 (JAK1; Table 3a, read-out: IC50 JAK1): 0.9 nM
- IC50 (PDE4B): 832 nM
- IC50 (GM-CSF/pSTAT5): 2100 nM
- IC50 (IL-31; [3]): 23.9 nM
- IC50 (IL-4/pSTAT6): 94.8 nM
- Dog LM QH [1]: <19.9%

Structure (SMILES): Cc1cnc(Nc2ccc3c(c2)C(C)(C)OB3O)nc1N[C@@H]1COCC[C@H]1C#N (relative stereo) [Example 032, (trans)-3-[[2-[(1-hydroxy-3,3-dimethyl-2,1-benzoxaborol-5-yl)amino]-5-methyl-pyrimidin-4-yl]amino]tetrahydropyran-4-carbonitrile]
- IC50 (JAK2; Table 3a, read-out: IC50 JAK2): 3.3 nM
- IC50 (JAK1; Table 3a, read-out: IC50 JAK1): 0.6 nM
- IC50 (PDE4B): 762 nM
- IC50 (GM-CSF/pSTAT5): 901 nM
- IC50 (IL-31; DH82, read-out: IC50 IL-31): 51 nM
- IC50 (IL-4/pSTAT6): 66.7 nM
- Dog LM QH [1]: 42.0%

Structure (SMILES): Cc1cnc(Nc2cc(Cl)c3c(c2)COB3O)nc1NC1CCCC[C@@H]1C#N (single isomer, unassigned) [Example 010a, (trans)-2-[[2-[(7-chloro-1-hydroxy-3H-2,1-benzoxaborol-5-yl)amino]-5-methyl-pyrimidin-4-yl]amino]cyclohexane-1-carbonitrile]
- IC50 (JAK2; Table 3a, read-out: IC50 JAK2): 4 nM
- IC50 (JAK1; Table 3a, read-out: IC50 JAK1): 0.6 nM
- IC50 (GM-CSF/pSTAT5): 469 nM
- IC50 (IL-31; [3]): 12.7 nM
- IC50 (IL-4/pSTAT6): 37.9 nM
- Dog LM QH [1]: <19.9%

Structure (SMILES): Cc1cnc(Nc2cc3c(c(C(F)(F)F)c2)B(O)OC3)nc1N[C@H]1CCCC[C@@H]1C#N (single isomer, unassigned) [Example 011a, (trans)-2-((2-((1-hydroxy-7-(trifluoromethyl)-1,3-dihydrobenzo[c][1,2]oxaborol-5-yl)amino)-5-methylpyrimidin-4-yl)amino)cyclohexane-1-carbonitrile]
- IC50 (JAK2; Table 3a, read-out: IC50 JAK2): 11.7 nM
- IC50 (JAK1; Table 3a, read-out: IC50 JAK1): 0.4 nM
- IC50 (GM-CSF/pSTAT5): 1480 nM
- IC50 (IL-31; [3]): 107 nM
- IC50 (IL-4/pSTAT6): 151 nM
- Dog LM QH [1]: <19.9%

Structure (SMILES): Cc1cnc(Nc2ccc3c(c2)COB3O)nc1N[C@@H]1COCC[C@H]1C#N (single isomer, unassigned) [Example 026a, (trans)-3-((2-((1-hydroxy-1,3-dihydrobenzo[c][1,2]oxaborol-5-yl)amino)-5-methylpyrimidin-4-yl)amino)tetrahydro-2H-pyran-4-carbonitrile]
- IC50 (JAK2; IC50 JAK2, Table 3a): 1.6 nM
- IC50 (JAK1; IC50 JAK1, Table 3a): 0.4 nM
- IC50 (PDE4B): 972 nM
- IC50 (GM-CSF/pSTAT5): 4240 nM
- IC50 (IL-31; [3]): 21.6 nM
- IC50 (IL-4/pSTAT6): 49.7 nM
- Dog LM QH [1]: <19.9%

Structure (SMILES): Cc1cnc(Nc2cc(F)c3c(c2)COB3O)nc1N[C@@H]1COCC[C@H]1C#N (single isomer, unassigned) [Example 029a, (trans)-3-[[2-[(7-fluoro-1-hydroxy-3H-2,1-benzoxaborol-5-yl)amino]-5-methyl-pyrimidin-4-yl]amino]tetrahydropyran-4-carbonitrile]
- IC50 (JAK2; Table 3a, read-out: IC50 JAK2): 3.7 nM
- IC50 (JAK1; Table 3a, read-out: IC50 JAK1): 0.02 nM
- IC50 (PDE4B): 381 nM
- IC50 (GM-CSF/pSTAT5): 1170 nM
- IC50 (IL-31; [3]): 19.8 nM
- IC50 (IL-4/pSTAT6): 48.8 nM
- Dog LM QH [1]: <19.9%

- concentration at 48 h ([2]; dog, in vivo, read-out: Mean Clast): 7.98 ng/mL
- Median Tlast [2]: 48 h
- Dog LM QH [1]: <19.9%
Structure (SMILES): Cc1cnc(Nc2cc(Cl)c3c(c2)COB3O)nc1N[C@@H]1COCC[C@H]1C#N (single isomer, unassigned) [Example 031b, (trans)-3-((2-((7-chloro-1-hydroxy-1,3-dihydrobenzo[c][1,2]oxaborol-5-yl)amino)-5-methylpyrimidin-4-yl)amino)tetrahydro-2H-pyran-4-carbonitrile]

Structure (SMILES): Cc1cc(Nc2ncc(Cl)c(N[C@H]3COCC[C@@H]3C#N)n2)cc2c1B(O)OC2 (single isomer, unassigned) [Example 041a, (trans)-3-[[5-chloro-2-[(1-hydroxy-7-methyl-3H-2,1-benzoxaborol-5-yl)amino]pyrimidin-4-yl]amino]tetrahydropyran-4-carbonitrile]
- IC50 (JAK2; IC50 JAK2, Table 3a): 3.1 nM
- IC50 (JAK1; IC50 JAK1, Table 3a): 0.8 nM
- IC50 (GM-CSF/pSTAT5): > 10000 nM
- IC50 (IL-31; [3]): 40 nM
- IC50 (IL-4/pSTAT6): 47 nM
- Dog LM QH [1]: <19.9%

Structure (SMILES): N#C[C@H]1CCOC[C@@H]1Nc1nc(Nc2cc3c(c(C(F)(F)F)c2)B(O)OC3)ncc1Cl (single isomer, unassigned) [Example 042a, (trans)-3-((5-chloro-2-((1-hydroxy-7-(trifluoromethyl)-1,3-dihydrobenzo[c][1,2]oxaborol-5-yl)amino)pyrimidin-4-yl)amino)tetrahydro-2H-pyran-4-carbonitrile]
- IC50 (JAK2; Table 3a, read-out: IC50 JAK2): 7.3 nM
- IC50 (JAK1; Table 3a, read-out: IC50 JAK1): 0.4 nM
- IC50 (GM-CSF/pSTAT5): 2970 nM
- IC50 (IL-31; [3]): 9.7 nM
- IC50 (IL-4/pSTAT6): 148 nM
- Dog LM QH [1]: <19.9%

Structure (SMILES): Cc1cnc(Nc2cc3c(c(C(F)(F)F)c2)B(O)OC3)nc1N[C@H]1COC[C@@H]1C#N (single isomer, unassigned) [Example 043a, (trans)-4-[[2-[[1-hydroxy-7-(trifluoromethyl)-3H-2,1-benzoxaborol-5-yl]amino]-5-methyl-pyrimidin-4-yl]amino]tetrahydrofuran-3-carbonitrile]
- IC50 (JAK2; Table 3a, read-out: IC50 JAK2): 23.7 nM
- IC50 (JAK1; Table 3a, read-out: IC50 JAK1): 0.9 nM
- IC50 (GM-CSF/pSTAT5): 4140 nM
- IC50 (IL-31; [3]): 45.4 nM
- IC50 (IL-4/pSTAT6): 267 nM
- Dog LM QH [1]: <19.9%

Structure (SMILES): Cc1cnc(Nc2cc(Cl)c3c(c2)COB3O)nc1N[C@H]1CCCOC1 [Example 030b, (S)-7-chloro-5-((5-methyl-4-((tetrahydro-2H-pyran-3-yl)amino)pyrimidin-2-yl)amino)benzo[c][1,2]oxaborol-1(3H)-ol]
- IC50 (JAK2; Table 3a, read-out: IC50 JAK2): 91.9 nM
- IC50 (JAK1; Table 3a, read-out: IC50 JAK1): 4.7 nM
- IC50 (GM-CSF/pSTAT5): 4480 nM
- IC50 (IL-31; DH82, read-out: IC50 IL-31): 25.8 nM
- IC50 (IL-4/pSTAT6): 193 nM
- Dog LM QH [1]: <19.9%

Structure (SMILES): N#CC1CCOCC1Nc1nc(Nc2cc(F)c3c(c2)COB3O)ncc1Cl (stereo not drawn) [Example 050, 3-((5-chloro-2-((7-fluoro-1-hydroxy-1,3-dihydrobenzo[c][1,2]oxaborol-5-yl)amino)pyrimidin-4-yl)amino)tetrahydro-2H-pyran-4-carbonitrile]
- IC50 (JAK2; Table 3a, read-out: IC50 JAK2): 1.2 nM
- IC50 (JAK1; Table 3a, read-out: IC50 JAK1): 0.2 nM
- IC50 (PDE4B): 832 nM
- IC50 (GM-CSF/pSTAT5): 2100 nM
- IC50 (IL-31; [3]): 23.9 nM
- IC50 (IL-4/pSTAT6): 94.8 nM
- Dog LM QH [1]: <19.9%
